Columns and labels:
[1] = biological target: T1, human VR1 (Homo sapiens, UniProt Q8NER1); experiment: pH-based assay of human VR1 (FLIPR calcium influx); assay type: cell-based; details: agonist buffer pH 5.5, HEK293-EcR cells expressing human VR1, n=4
T1 construct: expressed in transfected cells
Protocol: (§1) Human VR1 Cloning: Human spinal cord RNA (commercially available from Clontech, Palo Alto, Calif.) was used. Reverse transcription was conducted on 1.0 μg total RNA using Thermoscript Reverse Transcriptase (commercially available from Invitrogen) and oligo dT primers as detailed in its product description. Reverse transcription reactions were incubated at 55° C. for 1 h, heat-inactivated at 85° C. for 5 min, and RNase H-treated at 37° C. for 20 min.
(§2) Human VR1 cDNA sequence was obtained by comparison of the human genomic sequence, prior to annotation, to the published rat sequence. Intron sequences were removed and flanking exonic sequences were joined to generate the hypothetical human cDNA. Primers flanking the coding region of human VR1 were designed as follows: forward primer, […]; and reverse primer, […]. […]
(§3) Generation of Inducible Cell Lines: Unless noted otherwise, cell culture reagents were purchased from Life Technologies of Rockville, Md. […] On the day of assay, cells were loaded with Fluo-4 (a calcium-sensitive dye that is commercially available from Molecular Probes) and CAP-mediated calcium influx was measured using a FLIPR as described below. […]

[2] = biological target: T1, human VR1; experiment: Capsaicin-based assay of human VR1 (FLIPR calcium influx); assay type: cell-based; details: activation by capsaicin (400 nM), HEK293-EcR cells expressing human VR1, n=3
Protocol: as §1, §2, §3

T1 sequence (Q8NER1 whole entry): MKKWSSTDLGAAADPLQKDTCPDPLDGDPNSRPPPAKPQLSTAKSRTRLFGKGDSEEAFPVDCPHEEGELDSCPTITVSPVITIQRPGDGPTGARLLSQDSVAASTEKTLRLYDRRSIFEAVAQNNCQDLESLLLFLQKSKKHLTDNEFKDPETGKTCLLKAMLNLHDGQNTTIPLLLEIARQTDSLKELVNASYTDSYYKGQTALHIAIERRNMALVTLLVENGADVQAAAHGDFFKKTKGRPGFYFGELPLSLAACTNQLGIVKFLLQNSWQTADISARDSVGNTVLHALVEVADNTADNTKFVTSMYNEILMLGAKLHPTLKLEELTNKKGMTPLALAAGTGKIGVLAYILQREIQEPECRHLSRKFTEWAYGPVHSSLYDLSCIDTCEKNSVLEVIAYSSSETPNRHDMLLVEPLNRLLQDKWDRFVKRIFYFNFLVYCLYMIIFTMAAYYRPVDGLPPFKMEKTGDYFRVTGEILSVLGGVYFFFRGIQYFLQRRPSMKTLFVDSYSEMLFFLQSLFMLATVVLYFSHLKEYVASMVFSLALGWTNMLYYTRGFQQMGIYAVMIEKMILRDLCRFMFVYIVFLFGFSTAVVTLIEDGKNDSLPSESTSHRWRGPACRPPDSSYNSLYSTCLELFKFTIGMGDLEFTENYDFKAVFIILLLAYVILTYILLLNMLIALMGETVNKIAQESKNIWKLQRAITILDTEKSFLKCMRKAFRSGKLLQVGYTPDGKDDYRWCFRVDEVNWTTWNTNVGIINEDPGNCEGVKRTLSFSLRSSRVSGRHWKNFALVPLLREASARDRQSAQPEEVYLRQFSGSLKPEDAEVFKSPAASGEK

With `Cc1cccnc1-c1ccc(C(=O)Nc2ccc(C(C)(C)C)cc2)nc1` [E35(a)] the IC50 [1] was 826 ± 248 nM and the IC50 [2] was 65.5 ± 17.3 nM.

Reference: patent US7994177B2, “Therapeutic agents useful for treating pain” (Purdue Pharma L.P., priority 2003, dated 2011)
